Entries after “also recorded” stand apart in the source; their conditions may differ. No end group written: not given here.
Columns and labels:
human IL-7 = assay: Human peripheral T-cell (PBMC) proliferation assay, IL-7; assay type: cell-based; details: ex vivo human primary T cells, 10 nM human IL-7
Experimental: FIG. 6A-FIG. 6E presents inhibitory spectrum of BNZ132-1 over γc- and non-γc-cytokines. […] Neutralizing antibodies against each cytokine (R & D systems, 5 μg ml^−1) were included as controls. After 20 h, the cells were pulsed with WST-1 (Clontech) and OD450 of each well was measured after 6 h. A 19-mer scrambled peptide was used as a negative control at 5 μM. The experiments were conducted in triplicate (applies to all experiments in FIG. 6A-FIG. 6E). The result represents one of at least three independent experiments (applies to all experiments in FIG. 6A-FIG. 6E). […] In PT-18 proliferation assay, PT-18β or PT-18h21Rα cells were withdrawn of mouse IL-3 for 12 h before the experiment. Cells were then incubated with 1 nM of mouse IL-4, mouse IL-9, or mouse IL-21 in the presence or absence of the indicated doses (μM) of BNZ132-1. Neutralizing antibodies to each cytokine (5 μg ml^−1, except for anti-mouse IL-21 polyclonal antibody which was used at 15 μg ml−1) and a scrambled control peptide (5 μM) were included as negative controls. WST-1 assay was conducted as described above. […] In PT-18 h21Rα survival assay, PT-18h21Rα cells are described in the text. […] Both parental and hIL-21Rα positive PT-18 cells were washed and incubated without IL-3 for 12 h before the assay. […] The Y-axis represents the cpm (count per minute) values measured by a β-counter. […]

[1] = tested on: IL-2/IL-15-induced proliferation of ex vivo human T-lymphocytes; assay type: cell-based
Experimental: FIG. 7A, and FIG. 7B present effective inhibition of a combined function of target γc-cytokines by BNZ132-1. […] Human Peripheral T cells were prepared as described in the methodology section. Four hundred thousand cells (in 200 μl culture) were incubated with the cytokines and BNZ132-1 at the indicated concentrations for 24 h, and cellular proliferation was determined by the […] using the WST-1 reagent (Clontech). The Y-axis represents the OD450 values. The p values; 1 nM cytokine combination—No inhibition vs. anti-IL-2; 0.33, No inhibition vs. anti-IL-15; 0.13, No inhibition vs. anti IL-2+IL-15; 0.003. No inhibition vs. BNZ132-1; 0.021. 0.1 nM cytokine combination—No inhibition vs. anti-IL-2; 0.046, No inhibition vs. anti-IL-15; 0.057, No inhibition vs. anti IL-2+IL-15; 0.001, No inhibition vs. anti IL-2+15; 0.001, No inhibition vs.BNZ132-1; 0.001. The assay was performed in triplicate. […] Peripheral blood mononuclear cells were purified from the blood of a HAM-TSP patient and set up for a spontaneous proliferation assay as previously described36. The cellular proliferation was measured by the thymidine incorporation assay. The Y-axis represents the cpm values. Doses are on the X-axis; BNZ132-1, 3 and 0.3 μM. […] After 12 h incubation, OD450 was measured. […] Absorbance at 450 nm was read at 6 h after the addition of the WST-1 dye. […]

In the case of IKEFLQRFIHIVQSIINTS [BNZ132-1], the “inhibition of IL-7-induced proliferation of ex vivo human T cells” value (human IL-7) is reported as “not significantly inhibited; also recorded: no inhibition of IL-7” and the IC50 [1] is reported as 150 nM.
